Source: patent publication US20090239760A1, “Method for the Identification of New Leads for Drug Candidates” (UNIVERSITY OF BASEL, priority 2006, published 2009)

What was measured:
[1] = molecular target: T1, Fc-MAG(d1-3) (Mus musculus, UniProt P20917); assay: surface plasmon resonance (BIACORE 3000), Fc-MAG(d1-3) immobilized by protein A; format: binding, murine
T1 sequence (P20917 20-325 limits assumed): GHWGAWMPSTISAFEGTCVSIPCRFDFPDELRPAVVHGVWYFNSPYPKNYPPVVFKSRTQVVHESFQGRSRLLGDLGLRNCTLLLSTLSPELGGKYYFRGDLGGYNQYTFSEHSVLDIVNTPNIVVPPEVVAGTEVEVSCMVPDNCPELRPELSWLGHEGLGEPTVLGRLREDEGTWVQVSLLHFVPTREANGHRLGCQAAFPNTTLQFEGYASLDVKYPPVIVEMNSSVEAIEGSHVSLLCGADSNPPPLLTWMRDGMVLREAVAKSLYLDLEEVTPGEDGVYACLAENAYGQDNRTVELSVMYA
Protocol: For the in situ click chemistry experiment (Lewis, 2002; Bourne, 2004; […], 2005), Fc-MAG(d1-3) (Crocker, 1996) (8.77 μM) was incubated with a mixture of the four substituted first-site ligands 14a-d (each 40 μM) and the two substituted second-site ligands 22, 26 (each 800 μM) in phosphate buffer (pH 7.4) at 37° C. for 24 h. The different concentrations of the first- and second-site ligands reflect their affinities in the low micro- and millimolar range. […] To exclude that false positives are formed during incubation, two control experiments were performed. In the first, MAG was replaced by bovine serum albumin. In the second, no protein was added. In both experiments, no triazole formation could be observed. The protein included the Fc portion of human immunoglobulin IgG1 and the three N-terminal domains of murine MAG (for its preparation, see Crocker & Kelm (1996)). […] The KD analyses were performed at 25° C. on a BIACORE 3000 surface plasmon resonance-based optical biosensor (Biacore AB, Uppsala, Sweden). Protein A (Sigma, Basel) was immobilized onto a CM5 sensor chip (Biacore AB, research grade) using standard amine coupling. All data processing and equilibrium binding constant determinations were accomplished with Scrubber© (BioLogic Software, Campbell, Australia, Version 1.1g). […] The equilibrium binding constants KD were calculated using a 1:1 binding model. […]

[2] = molecular target: T2, MAG (Mus musculus, UniProt P20917); assay: NMR second-site screening with spin-labeled first-site ligand 2 (Jahnke method); conditions: H-NMR in the presence of spin-labeled analogue 2; indicates binding proximate (radius of 15 to 20 Å) to the Tempo spin label
T2 sequence (P20917 20-627): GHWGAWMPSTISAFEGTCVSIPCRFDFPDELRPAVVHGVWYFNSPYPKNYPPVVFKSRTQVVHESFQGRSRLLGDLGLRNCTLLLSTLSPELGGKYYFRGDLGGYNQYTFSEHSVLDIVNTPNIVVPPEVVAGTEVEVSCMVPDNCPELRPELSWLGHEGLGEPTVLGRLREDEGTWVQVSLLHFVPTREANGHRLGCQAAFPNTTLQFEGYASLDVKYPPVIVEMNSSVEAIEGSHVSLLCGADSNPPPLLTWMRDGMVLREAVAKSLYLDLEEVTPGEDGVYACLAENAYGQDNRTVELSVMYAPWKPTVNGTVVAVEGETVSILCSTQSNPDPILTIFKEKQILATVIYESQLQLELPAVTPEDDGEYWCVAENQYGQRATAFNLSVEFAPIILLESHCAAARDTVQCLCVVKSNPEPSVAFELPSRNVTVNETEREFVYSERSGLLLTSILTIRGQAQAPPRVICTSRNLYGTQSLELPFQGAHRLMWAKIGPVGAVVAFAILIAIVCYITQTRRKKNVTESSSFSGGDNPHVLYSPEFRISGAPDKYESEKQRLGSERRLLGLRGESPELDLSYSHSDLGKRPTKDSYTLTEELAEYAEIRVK
Excerpt: Second-site ligands that are affected by the initial lead can be detected in different ways, including NMR based methods that involve, e.g. spin labeling the initial lead. […] Jahnke's method detects the paramagnetic relaxation enhancement on a second ligand caused by a spin-labeled first ligand. The method allows for the detection of “true” second-site ligands, which are ligands that bind to the target (1) simultaneously with and (2) in the proximity of the first ligand (“second-site screening”).
Members of a library composed of 60 divers or sub-libraries thereof, which are drug-like, soluble and synthetically easily available fragments (“second-site ligands”) binding to the target protein were identified based on their shorter relaxation time in H-NMR.

For `O=[N+]([O-])c1ccc2[nH]ccc2c1` [compound 15, 5-nitro-1H-indole], which affinity ([1]; surface plasmon resonance experiment) is on record?
Its affinity is “low millimolar range”.

What about the paramagnetic relaxation enhancement [2] of the same compound?
The paramagnetic relaxation enhancement was “enhanced relaxation was observed”.

How did the Kd ([1]; SPR, Fc-MAG(d1-3) immobilized by protein A, 25° C., 1:1 binding model) turn out when `CC(=O)NC1C(O)CC(OCc2cn(CCCc3c[nH]c4ccc([N+](=O)[O-])cc34)nn2)(C(=O)O)OC1C(O)C(O)CNC(=O)c1ccccc1` [compound 27, 1-(5-nitro-1H-indol-3-yl-propyl)-4-{sodium [5-acetamido-9-benzamido-3,5,9-trideoxy-D-glycero-α-D-galacto-2-nonulopyranosynate-2-O-yl}-methyl-1,2,3]-triazole] was run?
Its Kd is 190 nM.
